Assays:
[1] = molecular target: Metabotropic glutamate receptor 1 (Rattus norvegicus, UniProt P23385); assay: Activity at rat mGluR1 by measuring intracellular calcium concentration in CHO cells; assay type: functional, cell-based
[2] = molecular target: Metabotropic glutamate receptor 5 (Rattus norvegicus, UniProt P31424); assay: Activity at rat mGluR5 by measuring intracellular calcium concentration in CHO cells; assay type: functional, cell-based
[3] = molecular target: Metabotropic glutamate receptor 2 (Homo sapiens, UniProt Q14416); assay: Activity at human mGluR2 from BHK cells in [35S]GTP-gamma-S stimulation assay; assay type: functional, cell-based
[4] = molecular target: T1, Metabotropic glutamate receptor 4 (Rattus norvegicus, UniProt P31423); assay: Functional activity at rat mGluR4
[5] = molecular target: Metabotropic glutamate receptor 6 (Rattus norvegicus, UniProt P35349); assay: Activity at rat mGluR6 by measuring cAMP formation in CHO cells; assay type: functional, cell-based
[6] = molecular target: Metabotropic glutamate receptor 7 (Homo sapiens, UniProt Q14831); assay: Activity at human mGluR7 by measuring cAMP formation in BHK cells; assay type: functional, cell-based
[7] = molecular target: T1, Metabotropic glutamate receptor 4; assay: Displacement of [3H]L-AP4 from rat mGluR4 expressed in BHK cells; assay type: cell-based
[8] = molecular target: Metabotropic glutamate receptor 8 (Rattus norvegicus, UniProt P70579); assay: Displacement of [3H]LY341495 from rat mGluR8 expressed in BHK cells; assay type: cell-based
Metabotropic glutamate receptor 8, sequence (P70579 whole entry): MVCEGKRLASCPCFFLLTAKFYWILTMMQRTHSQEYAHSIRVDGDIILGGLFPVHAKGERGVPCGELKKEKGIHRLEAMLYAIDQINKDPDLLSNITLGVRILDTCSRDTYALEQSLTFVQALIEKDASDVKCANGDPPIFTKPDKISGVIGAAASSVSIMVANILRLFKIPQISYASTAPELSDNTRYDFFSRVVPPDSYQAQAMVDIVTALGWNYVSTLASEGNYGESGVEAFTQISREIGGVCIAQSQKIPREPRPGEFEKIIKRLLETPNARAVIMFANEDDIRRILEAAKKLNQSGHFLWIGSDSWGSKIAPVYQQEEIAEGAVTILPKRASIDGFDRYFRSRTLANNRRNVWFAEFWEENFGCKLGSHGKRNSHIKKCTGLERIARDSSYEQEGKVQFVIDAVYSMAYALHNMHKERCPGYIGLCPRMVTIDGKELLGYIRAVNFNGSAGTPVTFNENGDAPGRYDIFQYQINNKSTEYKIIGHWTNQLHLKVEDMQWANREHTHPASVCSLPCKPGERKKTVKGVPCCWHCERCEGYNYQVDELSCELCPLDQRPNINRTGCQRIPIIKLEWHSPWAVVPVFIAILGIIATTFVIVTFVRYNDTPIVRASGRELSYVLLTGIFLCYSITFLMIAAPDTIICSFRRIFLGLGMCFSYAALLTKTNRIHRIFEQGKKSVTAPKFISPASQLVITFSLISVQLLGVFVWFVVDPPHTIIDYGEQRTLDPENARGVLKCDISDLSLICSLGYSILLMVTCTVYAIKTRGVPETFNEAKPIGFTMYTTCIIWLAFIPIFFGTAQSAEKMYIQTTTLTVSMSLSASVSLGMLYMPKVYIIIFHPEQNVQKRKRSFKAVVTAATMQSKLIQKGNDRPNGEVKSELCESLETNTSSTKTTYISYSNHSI

Metabotropic glutamate receptor 5, sequence (P31424 whole entry): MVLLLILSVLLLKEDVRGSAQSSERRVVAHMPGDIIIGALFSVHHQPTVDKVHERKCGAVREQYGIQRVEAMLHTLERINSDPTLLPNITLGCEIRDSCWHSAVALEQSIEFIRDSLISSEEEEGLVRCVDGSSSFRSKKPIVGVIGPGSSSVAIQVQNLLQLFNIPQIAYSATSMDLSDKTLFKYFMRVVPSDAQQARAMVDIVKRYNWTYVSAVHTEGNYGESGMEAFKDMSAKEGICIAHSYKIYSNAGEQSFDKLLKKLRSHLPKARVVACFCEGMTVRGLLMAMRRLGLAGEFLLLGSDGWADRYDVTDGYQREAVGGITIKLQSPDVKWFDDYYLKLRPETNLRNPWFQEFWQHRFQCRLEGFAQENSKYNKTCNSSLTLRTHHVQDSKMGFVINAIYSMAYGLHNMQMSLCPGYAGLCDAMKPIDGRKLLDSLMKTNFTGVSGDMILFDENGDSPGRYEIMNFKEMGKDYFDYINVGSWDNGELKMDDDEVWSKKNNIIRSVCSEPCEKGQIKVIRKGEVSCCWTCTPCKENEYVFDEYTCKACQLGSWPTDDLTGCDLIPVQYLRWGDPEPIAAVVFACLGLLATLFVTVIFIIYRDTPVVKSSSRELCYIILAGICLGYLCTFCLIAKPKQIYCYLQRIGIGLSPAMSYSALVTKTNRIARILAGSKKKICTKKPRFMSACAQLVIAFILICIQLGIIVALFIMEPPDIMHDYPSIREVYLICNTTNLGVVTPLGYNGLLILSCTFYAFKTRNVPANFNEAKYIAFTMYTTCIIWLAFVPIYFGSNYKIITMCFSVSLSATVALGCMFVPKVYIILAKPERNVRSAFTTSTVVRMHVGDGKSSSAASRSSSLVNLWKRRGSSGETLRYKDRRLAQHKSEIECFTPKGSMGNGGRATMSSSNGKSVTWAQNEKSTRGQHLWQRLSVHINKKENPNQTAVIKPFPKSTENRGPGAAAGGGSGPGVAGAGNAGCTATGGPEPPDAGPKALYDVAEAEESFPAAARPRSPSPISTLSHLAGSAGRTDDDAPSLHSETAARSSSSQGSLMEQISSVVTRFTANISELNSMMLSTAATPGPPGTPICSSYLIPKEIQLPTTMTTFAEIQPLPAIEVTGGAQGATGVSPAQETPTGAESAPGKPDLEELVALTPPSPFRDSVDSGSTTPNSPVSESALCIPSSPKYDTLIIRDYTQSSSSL
Metabotropic glutamate receptor 1, sequence (P23385 whole entry): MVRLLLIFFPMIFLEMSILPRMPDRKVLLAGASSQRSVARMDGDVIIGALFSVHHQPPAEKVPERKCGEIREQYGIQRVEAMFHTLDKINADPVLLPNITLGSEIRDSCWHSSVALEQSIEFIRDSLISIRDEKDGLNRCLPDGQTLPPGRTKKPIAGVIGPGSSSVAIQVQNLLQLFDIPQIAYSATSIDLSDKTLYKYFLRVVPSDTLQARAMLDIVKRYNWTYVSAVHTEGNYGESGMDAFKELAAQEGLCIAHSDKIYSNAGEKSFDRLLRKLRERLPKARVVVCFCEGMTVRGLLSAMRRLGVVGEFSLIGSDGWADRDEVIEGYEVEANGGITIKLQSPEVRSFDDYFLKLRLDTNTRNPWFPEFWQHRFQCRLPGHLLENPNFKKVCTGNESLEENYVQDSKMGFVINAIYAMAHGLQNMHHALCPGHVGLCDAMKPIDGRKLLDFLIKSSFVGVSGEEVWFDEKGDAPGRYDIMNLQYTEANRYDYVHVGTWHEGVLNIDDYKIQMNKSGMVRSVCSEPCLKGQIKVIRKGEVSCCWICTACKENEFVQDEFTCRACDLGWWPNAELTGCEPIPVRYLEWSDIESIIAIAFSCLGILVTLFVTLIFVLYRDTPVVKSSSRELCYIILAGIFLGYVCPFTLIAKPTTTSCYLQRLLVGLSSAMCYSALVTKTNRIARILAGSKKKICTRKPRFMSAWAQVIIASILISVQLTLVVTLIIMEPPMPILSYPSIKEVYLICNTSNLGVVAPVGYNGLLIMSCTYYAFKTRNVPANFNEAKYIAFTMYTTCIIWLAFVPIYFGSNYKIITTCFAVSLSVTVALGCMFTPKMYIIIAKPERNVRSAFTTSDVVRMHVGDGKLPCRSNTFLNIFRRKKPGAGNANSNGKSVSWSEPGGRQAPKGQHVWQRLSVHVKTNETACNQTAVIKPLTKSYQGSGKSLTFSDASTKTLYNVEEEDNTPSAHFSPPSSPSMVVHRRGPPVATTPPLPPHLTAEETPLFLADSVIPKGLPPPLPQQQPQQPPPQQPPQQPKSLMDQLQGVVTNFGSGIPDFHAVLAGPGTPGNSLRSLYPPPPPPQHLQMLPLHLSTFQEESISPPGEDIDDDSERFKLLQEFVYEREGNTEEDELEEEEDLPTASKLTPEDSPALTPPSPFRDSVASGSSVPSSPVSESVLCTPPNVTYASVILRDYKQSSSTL
Metabotropic glutamate receptor 2, sequence (Q14416 whole entry): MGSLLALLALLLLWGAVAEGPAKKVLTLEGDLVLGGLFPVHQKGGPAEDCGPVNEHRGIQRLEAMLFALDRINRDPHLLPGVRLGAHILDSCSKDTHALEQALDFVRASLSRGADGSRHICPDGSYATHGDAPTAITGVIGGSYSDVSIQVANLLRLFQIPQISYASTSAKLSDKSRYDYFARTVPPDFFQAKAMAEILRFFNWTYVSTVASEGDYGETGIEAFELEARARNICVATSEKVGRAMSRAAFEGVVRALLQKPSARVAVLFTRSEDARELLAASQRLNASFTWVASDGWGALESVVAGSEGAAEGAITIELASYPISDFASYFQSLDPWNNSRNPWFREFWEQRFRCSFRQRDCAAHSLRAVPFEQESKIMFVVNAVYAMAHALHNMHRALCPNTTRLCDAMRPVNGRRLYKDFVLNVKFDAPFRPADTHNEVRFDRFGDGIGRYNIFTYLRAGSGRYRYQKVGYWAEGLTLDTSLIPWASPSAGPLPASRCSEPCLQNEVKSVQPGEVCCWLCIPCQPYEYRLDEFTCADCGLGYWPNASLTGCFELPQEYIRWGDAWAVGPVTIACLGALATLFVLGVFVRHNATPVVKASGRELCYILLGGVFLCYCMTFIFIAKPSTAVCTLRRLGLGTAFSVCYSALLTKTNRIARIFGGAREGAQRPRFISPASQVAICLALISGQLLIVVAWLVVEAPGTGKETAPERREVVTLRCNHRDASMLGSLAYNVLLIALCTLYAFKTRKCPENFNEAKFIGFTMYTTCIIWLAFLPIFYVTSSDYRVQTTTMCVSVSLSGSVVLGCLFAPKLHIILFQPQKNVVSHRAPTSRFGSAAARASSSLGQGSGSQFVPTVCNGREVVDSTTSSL
T1 sequence (P31423 whole entry): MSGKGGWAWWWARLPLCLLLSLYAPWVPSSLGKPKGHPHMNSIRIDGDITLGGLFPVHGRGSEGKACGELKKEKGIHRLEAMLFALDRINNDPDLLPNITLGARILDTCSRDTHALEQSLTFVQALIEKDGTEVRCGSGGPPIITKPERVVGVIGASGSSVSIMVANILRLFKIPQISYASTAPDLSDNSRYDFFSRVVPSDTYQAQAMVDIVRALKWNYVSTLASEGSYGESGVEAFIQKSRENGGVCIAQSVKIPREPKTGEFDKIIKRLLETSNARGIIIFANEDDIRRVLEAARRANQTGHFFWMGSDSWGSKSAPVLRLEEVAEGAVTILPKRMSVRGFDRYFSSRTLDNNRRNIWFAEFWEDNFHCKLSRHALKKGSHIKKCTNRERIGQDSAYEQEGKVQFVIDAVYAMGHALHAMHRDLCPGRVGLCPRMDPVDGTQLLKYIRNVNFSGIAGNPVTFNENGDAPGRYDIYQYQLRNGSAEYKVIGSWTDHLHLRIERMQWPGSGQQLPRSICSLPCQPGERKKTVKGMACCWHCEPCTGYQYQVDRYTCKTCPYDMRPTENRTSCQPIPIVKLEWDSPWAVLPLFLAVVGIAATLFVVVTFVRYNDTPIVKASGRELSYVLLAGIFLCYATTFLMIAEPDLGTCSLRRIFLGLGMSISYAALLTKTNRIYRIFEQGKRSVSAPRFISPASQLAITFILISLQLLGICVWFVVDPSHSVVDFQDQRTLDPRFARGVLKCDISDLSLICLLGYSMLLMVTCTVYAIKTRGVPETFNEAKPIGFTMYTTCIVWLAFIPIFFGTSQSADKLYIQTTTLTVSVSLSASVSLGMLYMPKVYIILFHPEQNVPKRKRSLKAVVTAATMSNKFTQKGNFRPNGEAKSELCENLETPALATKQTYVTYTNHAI

With `N[C@H](C(=O)O)[C@H]1C[C@@H]1P(=O)(O)O` the EC50 [1] was over 1000 µM, the EC50 [2] was over 1000 µM and the EC50 [3] was over 1000 µM. It also gave an EC50 [4] of 9.4 µM, an EC50 [5] of 13 µM and an EC50 [6] of 700 µM. For the same compound, the Ki [7] was 7.4 µM and the Ki [8] was 63 µM.
For `N[C@H](C(=O)O)[C@@H]1C[C@H]1P(=O)(O)O`, the EC50 [1] was over 1000 µM, the EC50 [2] was over 1000 µM and the EC50 [3] was over 1000 µM. For the same compound, the EC50 [4] was 49 µM, the EC50 [5] was 46 µM and the EC50 [6] was over 1000 µM. It also gave a Ki [7] of 53 µM and a Ki [8] of 54 µM.
With `N[C@@H](CCP(=O)(O)O)C(=O)O` the EC50 [1] was over 1000 µM, the EC50 [2] was over 1000 µM and the EC50 [3] was over 1000 µM. The EC50 [4] was 0.51 µM, the EC50 [5] was 0.34 µM and the EC50 [6] was 188 µM. It also gave a Ki [7] of 0.16 µM and a Ki [8] of 1.9 µM.
`N[C@@H](CCC(=O)O)C(=O)O` [GLUTAMIC ACID] was tested, and the EC50 [4] was 6.1 µM, the EC50 [5] was 7.6 µM and the EC50 [6] was over 1000 µM. For the same compound, the Ki [7] was 3.4 µM and the Ki [8] was 3.4 µM.

— ChEMBL document CHEMBL1148556, “Synthesis and preliminary biological evaluation of (2S,1'R,2'S)- and (2S,1'S,2'R)-2-(2'-phosphonocyclopropyl)glycines, two novel conformationally constrained l-AP4 analogues” (Bioorg Med Chem Lett, 2006)
